Results reported in article PMC3139112 (Journal of molecular biology, 2011).

The sequences below were run against A3G (APOBEC3G) (Homo sapiens, UniProt Q9HC16). Conditions: 1 μM peptide (Fig. 3B).
Assay type: biochemical

Sequence of A3G (APOBEC3G) (Q9HC16 whole entry): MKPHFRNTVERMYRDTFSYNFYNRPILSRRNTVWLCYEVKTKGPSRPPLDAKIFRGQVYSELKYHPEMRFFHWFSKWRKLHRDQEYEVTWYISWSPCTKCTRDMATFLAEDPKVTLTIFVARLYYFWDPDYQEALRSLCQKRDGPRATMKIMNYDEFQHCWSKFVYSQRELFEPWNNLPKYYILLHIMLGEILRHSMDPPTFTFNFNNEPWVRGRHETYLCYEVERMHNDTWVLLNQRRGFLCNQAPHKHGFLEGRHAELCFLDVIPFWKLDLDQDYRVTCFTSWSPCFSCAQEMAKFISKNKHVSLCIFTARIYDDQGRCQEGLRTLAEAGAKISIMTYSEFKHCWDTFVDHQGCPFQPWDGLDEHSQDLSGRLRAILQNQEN

Row | Sequence | inhibition of A3G deaminase activity (peptide screen)
1 | DCFSESAIRNAILGH [Vif113-127] | inhibited the A3G deaminase activity
2 | DLADQLIHLYYFDCF [Vif101-115] | inhibited the A3G deaminase activity
3 | GWFYRHHYESTHPRI [Vif37-51] | inhibited the A3G deaminase activity
4 | IVWQVDRMRIRTWKS [Vif9-23] | inhibited the A3G deaminase activity
